In brackets after ≈: the same amount, converted by molar mass. Activity calls are given as the source filed them. The rule behind the calls is not given here.

One series concerns Erythrocyte. In words: Hemolytic activity in human RBC after 1 hr. Type of series: ADME, cell-based.
For series [1], the system named is Escherichia coli. In words: Antibacterial activity against Escherichia coli KCTC 1682 in presence of 1 mM MgCl2 after 24 hrs. Type of series: functional. Particulars: KCTC 1682, 24 h.
Series [2] deals with Staphylococcus aureus. In words: Antibacterial activity against Staphylococcus aureus KCTC 1621 in presence of 20% human serum after 24 hrs. The note with it: KCTC 1621, 24 h. Type of series: functional.
Series [3] relates to Pseudomonas aeruginosa. The experiment in a line: Antibacterial activity against Pseudomonas aeruginosa KCTC 1637 after 24 hrs. Type of series: functional. Particulars: KCTC 1637, 24 h.
The subject of the next series is Enterococcus faecium. The experiment in a line: Potency index, ratio of LL-37 MIC to compound MIC for Vancomycin-resistant Enterococcus faecium ATCC 51559. The series is classed as functional.
The subject of series [4] is RAW264.7. In words: Anti-inflammatory activity in mouse RAW264.7 cells assessed as reduction in LPS-induced nitric oxide production at 10 to 20 uM after 24 hrs by Griess assay. Type of series: functional, cell-based.
The test system of the next series is Bacillus subtilis. In words: Antibacterial activity against Bacillus subtilis KCTC 3068 after 24 hrs. Type of series: functional. Particulars: KCTC 3068, 24 h.
The test system of the next series is Lipid bilayer. In words: Binding affinity to EYPE/EYPG small unilamellar vesicles assessed as intrinsic tryptophan acrylamide quenching constant by fluorescence assay (reference value: 5.95 to 7.56 /M).
The test system of series [5] is Pseudomonas aeruginosa. In words: Antibacterial activity against multidrug-resistant Pseudomonas aeruginosa CCARM 2109 after 24 hrs. The note with it: CCARM 2109, 24 h. Type of series: functional.
The subject of the next series is NIH3T3. The experiment in a line: Cytotoxicity against mouse NIH/3T3 cells up to 128 uM after 48 hrs by MTT assay. Type of series: cell-based. The note with it: nih3t3, 48 h.
Series [6] has as its system RAW264.7. In words: Anti-inflammatory activity in mouse RAW264.7 cells assessed as reduction in LPS-induced MCP-1 production at 10 to 20 uM preincubated for 1 hr followed by LPS stimulation measured after 6 hrs by ELISA. The series is classed as functional, cell-based.
Series [7] concerns Escherichia coli. The experiment in a line: Antibacterial activity against Escherichia coli KCTC 1682 in presence of 150 mM NaCl after 24 hrs. Type of series: functional. Particulars: KCTC 1682, 24 h.
The subject of series [8] is Staphylococcus aureus. In words: Antibacterial activity against Staphylococcus aureus KCTC 1621 in presence of 6 uM NH4Cl after 24 hrs. The series is classed as functional. Particulars: KCTC 1621, 24 h.
The test system of series [9] is Staphylococcus aureus. In words: Potency index, ratio of LL-37 MIC to compound MIC for methicillin resistant Staphylococcus aureus CCARM 3095. The series is classed as functional.
Series [10] is described as follows: Hemolytic activity in human RBC at 96 uM after 1 hr relative to control. Type of series: ADME, cell-based, Erythrocyte. The note with it: red blood cells (RBC, erythrocytes), read-out: Activity.

A word on the MIC: it is the lowest concentration found to suppress growth. Regarding `CC[C@H](C)[C@H](NC(=O)[C@H](CCCNC(=N)N)NC(=O)[C@@H](N)CCCCN)C(=O)N[C@H](C(=O)N[C@@H](CCCCN)C(=O)N[C@@H](CC(C)C)C(=O)N[C@H](CC(C)C)C(=O)N[C@@H](CC(C)C)C(=O)N[C@@H](CCCCN)C(=O)N[C@@H](Cc1c[nH]c2ccccc12)C(=O)N[C@@H](CC(C)C)C(=O)N[C@@H](CCCNC(=N)N)C(N)=O)C(C)C`, in the series with Erythrocyte, the MHC10 turned out to be 111 µM. In addition, the MIC in the series with Escherichia coli [1] worked out at 8 µM; in the series with Staphylococcus aureus [2], 16 µM; against Pseudomonas aeruginosa [3], 8 µM (≈ 12.5 µg/mL); with Bacillus subtilis, 2 µM (≈ 3.13 µg/mL); with Pseudomonas aeruginosa [5], 4 µM (≈ 6.26 µg/mL); with Escherichia coli [7] it was 4 µM. Also, the MIC with Staphylococcus aureus [8] was 2 µM. The Ratio in the series with Enterococcus faecium and in the series with Staphylococcus aureus [9] was 2 - 4 each time. The result with RAW264.7 [4] and with RAW264.7 [6] was Active. Besides, the KSV with Lipid bilayer was 1.01 M⁻¹. Also, the Activity entry in the series on NIH3T3 is on record as “Non-Toxic”.

In the series on Erythrocyte, `CC[C@H](C)[C@H](NC(=O)[C@H](CCCNC(=N)N)NC(=O)[C@@H](N)CCCCN)C(=O)N[C@H](C(=O)N[C@@H](CCCCN)C(=O)N[C@H](CC(C)C)C(=O)N[C@H](C(=O)N[C@@H](CC(C)C)C(=O)N[C@@H](CCCCN)C(=O)N[C@@H](Cc1c[nH]c2ccccc12)C(=O)N[C@@H](CC(C)C)C(=O)N[C@@H](CCCNC(=N)N)C(N)=O)[C@@H](C)CC)C(C)C` registered an MHC10 of 202 µM. In addition, the MIC is 4 µM in the series with Escherichia coli [1]; 16 µM in the series with Staphylococcus aureus [2]; 4 µM (≈ 6.26 µg/mL) with Pseudomonas aeruginosa [3]; 4 µM (≈ 6.26 µg/mL) with Bacillus subtilis; 4 µM (≈ 6.26 µg/mL) in the series with Pseudomonas aeruginosa [5]; 4 µM with Escherichia coli [7]. Further, the MIC in the series on Staphylococcus aureus [8] was determined as 2 µM. For the same molecule, the Ratio in the series on Enterococcus faecium and in the series on Staphylococcus aureus [9] was 2 - 4 in each case. Further, the outcome with RAW264.7 [4] and in the series on RAW264.7 [6] was Active. Further, in the series on Lipid bilayer, the KSV was 0.97 M⁻¹. In addition, the Activity result with NIH3T3 is “Non-Toxic”.

With `CC[C@H](C)[C@H](NC(=O)[C@H](CC(C)C)NC(=O)[C@H](CCCCN)NC(=O)[C@@H](NC(=O)[C@@H](NC(=O)[C@H](CCCNC(=N)N)NC(=O)[C@@H](N)CCCCN)[C@@H](C)CC)C(C)C)C(=O)N[C@@H](CC(C)C)C(=O)N[C@@H](CCCCN)C(=O)N[C@@H](Cc1c[nH]c2ccccc12)C(=O)N[C@@H](CC(C)C)C(=O)N[C@@H](CCCNC(=N)N)C(N)=O`, the MHC10 with Erythrocyte amounted to 25 µM. The MIC was 8 µM in the series with Escherichia coli [1]; 8 µM in the series on Staphylococcus aureus [2]; 8 µM (≈ 12.5 µg/mL) in the series with Pseudomonas aeruginosa [3]; 8 µM (≈ 12.5 µg/mL) against Bacillus subtilis; 8 µM (≈ 12.5 µg/mL) with Pseudomonas aeruginosa [5]; 8 µM in the series on Escherichia coli [7]. The MIC in the series with Staphylococcus aureus [8] was determined as 2 µM. For the same molecule, the Ratio in the series on Enterococcus faecium and in the series with Staphylococcus aureus [9] was 2 - 4 each time. Also, the result in the series with RAW264.7 [4] and in the series with RAW264.7 [6] was Active. Besides, the KSV with Lipid bilayer came out at 1.12 M⁻¹. In addition, the Activity entry in the series with NIH3T3 is on record as “Non-Toxic”. The hemolysis at 1 h, 96 µM in series [10] was found to be 50%.

For the molecule `CC[C@H](C)[C@H](NC(=O)[C@H](CC(C)C)NC(=O)[C@@H](CCCCN)NC(=O)[C@@H](NC(=O)[C@@H](NC(=O)[C@H](CCCNC(=N)N)NC(=O)[C@@H](N)CCCCN)[C@@H](C)CC)C(C)C)C(=O)N[C@@H](CC(C)C)C(=O)N[C@@H](CCCCN)C(=O)N[C@@H](Cc1c[nH]c2ccccc12)C(=O)N[C@@H](CC(C)C)C(=O)N[C@@H](CCCNC(=N)N)C(N)=O`, in the series on Erythrocyte, the MHC10 is 79 µM. Moreover, the MIC in the series with Escherichia coli [1] came to 8 µM; in the series with Staphylococcus aureus [2] it was 16 µM; in the series on Pseudomonas aeruginosa [3], 8 µM (≈ 12.5 µg/mL); against Bacillus subtilis, 8 µM (≈ 12.5 µg/mL); in the series on Pseudomonas aeruginosa [5], 4 µM (≈ 6.26 µg/mL); in the series with Escherichia coli [7], 4 µM. Further, in the series on Staphylococcus aureus [8], the MIC was 2 µM. Further, the Ratio with Enterococcus faecium and with Staphylococcus aureus [9] was 2 - 4 each time. Moreover, the result with RAW264.7 [4] and with RAW264.7 [6] was Active. Moreover, the KSV with Lipid bilayer was determined as 1.02 M⁻¹. Also, the Activity result in the series with NIH3T3 is listed as “Non-Toxic”.

The values are drawn from ChEMBL document CHEMBL4138105, “LL-37-derived short antimicrobial peptide KR-12-a5 and its d-amino acid substituted analogs with cell selectivity, anti-biofilm activity, synergistic effect with conventional antibiotics, and anti-inflammatory activity” (Eur J Med Chem, 2017).
